Blank lines part the entries; values can stand above or below the molecule they belong to. Calls of active or inactive are those of the source.
Tests used:
[1] = target: Aspartyl aminopeptidase (Plasmodium falciparum 3D7, UniProt Q8I2J3)
[2] = target: Procathepsin L (Homo sapiens, UniProt P07711)
[3] = target: T1, Mannose-6-phosphate isomerase (Homo sapiens, UniProt P34949); assay: inhibitors of human PMI, primary screen, biochemical, fluorescence intensity, coupled assay (AID 1209)
T1 sequence (P34949 whole entry): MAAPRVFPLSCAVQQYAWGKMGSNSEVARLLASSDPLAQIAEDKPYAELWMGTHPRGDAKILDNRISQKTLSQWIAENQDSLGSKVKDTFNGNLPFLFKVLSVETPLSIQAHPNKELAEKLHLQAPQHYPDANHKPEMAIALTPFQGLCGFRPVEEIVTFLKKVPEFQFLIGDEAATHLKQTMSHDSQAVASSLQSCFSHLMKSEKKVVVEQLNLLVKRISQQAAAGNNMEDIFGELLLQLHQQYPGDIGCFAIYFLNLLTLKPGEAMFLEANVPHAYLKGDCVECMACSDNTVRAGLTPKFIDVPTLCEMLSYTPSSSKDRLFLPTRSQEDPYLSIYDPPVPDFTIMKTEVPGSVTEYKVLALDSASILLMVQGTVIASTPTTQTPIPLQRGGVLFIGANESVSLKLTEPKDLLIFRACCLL

[4] = target: T1, Mannose-6-phosphate isomerase; assay: human PMI inhibitors, high substrate, primary screen, biochemical, fluorescence intensity, high mannose 6-phosphate (AID 1220)
[5] = target: T2, Neuropeptide Y receptor type 2 (Homo sapiens, UniProt P49146); assay: Fluorescence counterscreen for potentiators or agonists of NPY-Y1: Cell-based high-throughput dose response assay for potentiators or agonists of NPY-Y2.; type: functional
T2 sequence (P49146 whole entry): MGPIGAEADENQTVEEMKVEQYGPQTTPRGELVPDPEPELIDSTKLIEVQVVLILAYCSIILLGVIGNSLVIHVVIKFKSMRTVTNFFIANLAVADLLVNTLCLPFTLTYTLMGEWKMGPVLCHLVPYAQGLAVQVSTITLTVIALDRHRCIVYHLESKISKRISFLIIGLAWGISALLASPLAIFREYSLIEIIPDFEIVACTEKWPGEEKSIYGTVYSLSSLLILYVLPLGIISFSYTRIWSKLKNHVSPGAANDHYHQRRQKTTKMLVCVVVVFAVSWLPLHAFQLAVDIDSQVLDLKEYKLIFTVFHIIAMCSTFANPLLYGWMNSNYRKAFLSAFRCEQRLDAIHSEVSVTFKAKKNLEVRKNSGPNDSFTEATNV

[6] = target: T2, Neuropeptide Y receptor type 2; assay: Fluorescence-based counterscreen for agonists of NPY-Y1: cell-based high-throughput dose response assay for agonists of NPY-Y2.; type: functional
[7] = test system: HEK293; assay: Fluorescence-based counterscreen for potentiators or agonists of NPY-Y1: cell-based high-throughput dose response assay for inhibitors of cyclic nucleotide gated ion channel (CNGC) activity. In this assay, the parental HEK293 cell line transfected with a cyclic-nucleotide gated ion channel (CNGC)-based cAMP sensor is used to measure inhibition of isoproterenol-induced CNGC …; type: functional; conditions: Homo sapiens
[8] = target: T3, Neuropeptide Y receptor type 1 (Homo sapiens, UniProt P25929); assay: Fluorescence-based dose response cell-based high-throughput screening assay for potentiators or agonists of NPY-Y1.; type: functional
T3 sequence (P25929 whole entry): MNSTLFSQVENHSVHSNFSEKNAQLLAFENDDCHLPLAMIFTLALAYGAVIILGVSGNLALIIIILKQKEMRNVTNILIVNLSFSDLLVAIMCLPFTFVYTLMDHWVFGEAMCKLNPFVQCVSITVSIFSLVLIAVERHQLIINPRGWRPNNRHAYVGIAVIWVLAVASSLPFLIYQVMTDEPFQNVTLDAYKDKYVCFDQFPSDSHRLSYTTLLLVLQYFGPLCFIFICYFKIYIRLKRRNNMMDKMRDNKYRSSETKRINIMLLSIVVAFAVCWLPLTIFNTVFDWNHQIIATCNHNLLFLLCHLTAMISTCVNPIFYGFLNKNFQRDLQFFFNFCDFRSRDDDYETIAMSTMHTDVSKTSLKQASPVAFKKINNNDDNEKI

[9] = target: T3, Neuropeptide Y receptor type 1; assay: Fluorescence-based dose response cell-based high-throughput screening assay for agonists of NPY-Y1. [Related pubchem assays: 1697 (Screening assay (NPY-Y1 agonists).), 1359 (Screening assay (NPY-Y2 potentiators or agonists).), 1304 (Screening assay (NPY-Y1 potentiators or agonists).), 1704 (Screening assay (CNGC inhibitors).), 1791 (Summary AID.)]; type: functional
[10] = target: T4, Rac GTPase-activating protein 1 (Homo sapiens, UniProt Q9H0H5); assay: MgcRacGAP GTPase-activating activity inhibitors, confirmation, biochemical, ADP Hunter fluorescence, primary and confirmatory (AID 624330); type: functional
T4 sequence (Q9H0H5 whole entry): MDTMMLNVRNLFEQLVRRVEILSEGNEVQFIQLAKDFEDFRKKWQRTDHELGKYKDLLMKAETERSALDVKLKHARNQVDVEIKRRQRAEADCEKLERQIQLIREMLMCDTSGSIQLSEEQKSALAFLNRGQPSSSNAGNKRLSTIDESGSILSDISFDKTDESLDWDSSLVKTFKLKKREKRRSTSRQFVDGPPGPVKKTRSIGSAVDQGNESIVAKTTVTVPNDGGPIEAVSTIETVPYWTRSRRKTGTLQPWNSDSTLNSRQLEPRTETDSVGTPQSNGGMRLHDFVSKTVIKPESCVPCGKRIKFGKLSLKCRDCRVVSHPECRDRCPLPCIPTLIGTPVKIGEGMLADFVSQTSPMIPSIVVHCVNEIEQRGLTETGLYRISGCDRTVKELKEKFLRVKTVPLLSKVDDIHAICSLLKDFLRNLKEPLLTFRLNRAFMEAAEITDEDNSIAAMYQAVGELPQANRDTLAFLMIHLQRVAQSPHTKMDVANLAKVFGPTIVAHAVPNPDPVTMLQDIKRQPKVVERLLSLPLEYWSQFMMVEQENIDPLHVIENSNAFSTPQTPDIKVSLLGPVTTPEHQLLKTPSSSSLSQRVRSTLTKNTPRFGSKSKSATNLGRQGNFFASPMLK

[11] = target: T5, Neuropeptides B/W receptor type 1 (Homo sapiens, UniProt P48145); assay: Fluorescence-based dose response cell-based high throughput screening assay to identify antagonists of the G-protein coupled receptor 7 (GPR7). [Related pubchem assays: 1952 (Screening assay (GPR7 antagonists).), 1880 (Summary AID.)]; type: functional
T5 sequence (P48145 whole entry): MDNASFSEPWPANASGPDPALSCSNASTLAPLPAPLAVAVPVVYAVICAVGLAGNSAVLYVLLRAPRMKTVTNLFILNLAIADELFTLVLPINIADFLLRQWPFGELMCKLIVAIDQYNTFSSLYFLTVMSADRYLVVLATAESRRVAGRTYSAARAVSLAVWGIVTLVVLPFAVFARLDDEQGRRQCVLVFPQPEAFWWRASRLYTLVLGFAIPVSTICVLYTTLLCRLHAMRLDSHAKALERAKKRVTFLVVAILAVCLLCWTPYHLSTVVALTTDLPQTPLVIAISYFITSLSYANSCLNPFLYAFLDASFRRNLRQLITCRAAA

[12] = target: Melanin-concentrating hormone receptor 1 (Homo sapiens, UniProt Q99705); assay: Fluorescence-based counterscreen for antagonists of the G-protein coupled receptor 7 (GPR7): cell-based high throughput dose response assay to identify antagonists of the melanin-concentrating hormone receptor 1 (MCHR1).; type: functional
Sequence of Melanin-concentrating hormone receptor 1 (Q99705 whole entry): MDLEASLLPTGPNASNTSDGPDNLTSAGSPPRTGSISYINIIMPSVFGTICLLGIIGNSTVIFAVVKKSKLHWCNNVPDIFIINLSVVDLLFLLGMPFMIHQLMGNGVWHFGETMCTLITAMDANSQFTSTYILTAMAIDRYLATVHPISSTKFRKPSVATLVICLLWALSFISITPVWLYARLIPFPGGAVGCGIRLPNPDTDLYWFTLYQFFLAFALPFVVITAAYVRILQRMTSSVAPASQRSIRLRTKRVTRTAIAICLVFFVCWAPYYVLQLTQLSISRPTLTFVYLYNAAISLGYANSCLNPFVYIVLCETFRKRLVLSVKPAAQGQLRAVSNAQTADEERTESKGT

Sequence of Procathepsin L (P07711 whole entry): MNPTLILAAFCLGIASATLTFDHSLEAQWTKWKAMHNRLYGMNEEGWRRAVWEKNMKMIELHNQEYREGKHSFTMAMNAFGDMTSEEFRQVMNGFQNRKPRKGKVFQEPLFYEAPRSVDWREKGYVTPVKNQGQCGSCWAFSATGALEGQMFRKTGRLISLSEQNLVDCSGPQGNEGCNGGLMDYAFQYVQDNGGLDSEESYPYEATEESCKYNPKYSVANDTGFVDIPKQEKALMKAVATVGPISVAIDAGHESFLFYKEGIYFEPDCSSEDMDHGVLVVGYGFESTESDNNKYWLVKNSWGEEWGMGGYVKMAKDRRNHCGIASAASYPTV
Sequence of Aspartyl aminopeptidase (Q8I2J3 whole entry): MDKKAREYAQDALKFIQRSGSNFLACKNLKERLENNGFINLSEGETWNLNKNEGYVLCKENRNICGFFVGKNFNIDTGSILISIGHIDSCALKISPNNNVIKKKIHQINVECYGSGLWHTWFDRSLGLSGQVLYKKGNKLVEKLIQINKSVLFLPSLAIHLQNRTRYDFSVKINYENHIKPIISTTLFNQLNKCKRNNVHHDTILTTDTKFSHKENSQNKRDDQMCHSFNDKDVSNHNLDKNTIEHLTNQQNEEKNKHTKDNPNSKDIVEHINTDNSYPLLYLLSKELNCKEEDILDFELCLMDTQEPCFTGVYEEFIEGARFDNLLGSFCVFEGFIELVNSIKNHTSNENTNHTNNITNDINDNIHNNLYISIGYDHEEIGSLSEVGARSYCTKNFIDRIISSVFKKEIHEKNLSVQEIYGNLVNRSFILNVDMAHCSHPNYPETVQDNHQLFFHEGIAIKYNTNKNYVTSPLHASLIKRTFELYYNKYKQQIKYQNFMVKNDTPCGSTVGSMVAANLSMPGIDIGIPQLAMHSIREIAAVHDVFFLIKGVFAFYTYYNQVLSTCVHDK

IC50 [1]: 5.07 µM (active) | IC50 [2]: > 59.6 µM (not active) | IC50 [3]: > 50 µM (not active) | IC50 [4]: > 50 µM (not active)
Compound: CCOC(=O)NC1(Nc2ccc(C)cc2)Oc2ccccc2O1

Compound: CCOC(=O)C(Cc1ccccc1)C(=O)Nc1ccc(N(CC)CC)cc1 (configuration not stated)
EC50 [5]: 23.9 µM (not active) | EC50 [6]: 12.4 µM (not active) | IC50 [7]: 18.4 µM (not active) | EC50 [8]: 5.4 µM (active) | EC50 [9]: 7.05 µM (active) | IC50 [10]: 93.1 µM (active)

IC50 [11]: > 43.8 µM (not active) | IC50 [12]: > 43.8 µM (not active)
Compound: COc1ccc(S(=O)(=O)N2CCC(C(=O)NCc3ccco3)CC2)cc1

Reference: ChEMBL document CHEMBL1201862, “PubChem BioAssay data set” (2004)
